Data as given in the NIST ThermoML archive (doi:10.1021/je500936y).
Numbers after ± are expanded uncertainties.

Experiment: xn = mol fraction of the nth substance listed
Details: 100 kPa, Liquid; for speed of sound: Frequency=3 MHz, Sing-around technique in a fixed-path interferometer; for mass density: Vibrating tube method

C=CN1CCCC1=O [N-vinylpyrrolidone] + CCCCn1cc[n+](C)c1.F[B-](F)(F)F
Details	mass density, 298.15 K [kg/m3]	mass density, 303.15 K [kg/m3]	mass density, 308.15 K [kg/m3]	mass density, 313.15 K [kg/m3]	speed of sound, 298.15 K [m/s]	speed of sound, 303.15 K [m/s]	speed of sound, 308.15 K [m/s]	speed of sound, 313.15 K [m/s]	speed of sound, 318.15 K [m/s]
x2 = 0	1039.36 ± 2	1034.95 ± 2	1030.55 ± 2	1026.14 ± 2	1521.5 ± 3.1	1502.5 ± 3.1	1483.7 ± 3.1	1465 ± 3.1	1446.5 ± 3.1
x2 = 0.1046	1069.96 ± 1.9	1065.76 ± 1.9	1061.54 ± 1.9	1057.33 ± 1.8	1537.3 ± 2.9	1519.9 ± 2.9	1502.4 ± 2.9	1485 ± 2.9	1467.7 ± 2.9
x2 = 0.2035	1093.11 ± 1.7	1089.01 ± 1.7	1084.92 ± 1.7	1080.83 ± 1.7	1546 ± 2.7	1529.6 ± 2.7	1513 ± 2.7	1496.5 ± 2.7	1480.3 ± 2.7
x2 = 0.3042	1113.53 ± 1.5	1109.53 ± 1.5	1105.54 ± 1.5	1101.56 ± 1.5	1552.7 ± 2.5	1537.2 ± 2.5	1521.5 ± 2.5	1505.9 ± 2.5	1490.4 ± 2.5
x2 = 0.406	1131.03 ± 1.3	1127.12 ± 1.3	1123.22 ± 1.3	1119.32 ± 1.3	1557.8 ± 2.3	1543 ± 2.3	1528 ± 2.3	1513.2 ± 2.3	1498.5 ± 2.3
x2 = 0.4945	1144.21 ± 1.2	1140.37 ± 1.1	1136.54 ± 1.1	1132.74 ± 1.1	1560.6 ± 2.1	1546.2 ± 2.1	1532.1 ± 2.1	1517.9 ± 2.1	1503.9 ± 2.1
x2 = 0.607	1159.22 ± 0.95	1155.45 ± 0.95	1151.7 ± 0.94	1147.96 ± 0.93	1563.2 ± 1.9	1549.5 ± 1.9	1535.8 ± 1.9	1522.3 ± 1.9	1509 ± 1.9
x2 = 0.697	1170.1 ± 0.8	1166.39 ± 0.8	1162.69 ± 0.79	1159.01 ± 0.79	1564.4 ± 1.8	1551.4 ± 1.8	1538.3 ± 1.8	1525.3 ± 1.8	1512.5 ± 1.8
x2 = 0.7828	1179.78 ± 0.67	1176.14 ± 0.67	1172.5 ± 0.66	1168.89 ± 0.66	1565.8 ± 1.6	1553 ± 1.6	1540.6 ± 1.6	1528.1 ± 1.6	1515.7 ± 1.6
x2 = 0.9104	1191.59 ± 0.5	1187.99 ± 0.49	1184.4 ± 0.49	1180.83 ± 0.49	1566.1 ± 1.4	1553.9 ± 1.4	1542.1 ± 1.4	1530.1 ± 1.4	–
